Laboratory results as given in US6124431A, “Peptide derivatives” (Teikoku Hormone Mfg. Co., Ltd., priority 1993, dated 2000).

Tested on: mouse leukemia P388 cells
Experiment: Assay of antitumor activity (increase in life span of mice implanted with P388 leukemia)
Format: in vivo
Settings: CDF1 mice, P388 cells implanted i.p.; compound i.p. on day 1 and day 5; observed for 60 days; ILS relative to dolastatin 10 = 100
Method: (1) Assay of antitumor activity
0.1 ml (10^6 cells/mouse) portions of mouse leukemia P388 cells were implanted intraperitoneally into 7-week-old CDF1 mice. […] From the results were calculated increases in life span (ILS, %) according to the following equation. In the following equation, T means median survival days of the chemical administration group, and C means median survival days of the control group. [formula]
Antitumor activity is shown as the relative ratio in the case where the ILS of dolastatin 10 is supposed to be 100.

For dolastatin 10, the “Antitumor activity (relative ratio of ILS, ILS of dolastatin 10 supposed to be 100)” value was 100.
